We go through four molecules from ChEMBL document CHEMBL1156519, “Roles for two aminopeptidases in vacuolar hemoglobin catabolism in Plasmodium falciparum” (J Biol Chem, 2007).

The nature of assay [1]: Inhibition of DPAP1 assessed as blocking of release of beta-naphthylamine from Ala-Pro-Ala-betaNA substrate at 1 uM.
Assay [2] in a line: Inhibition of DPAP1 assessed as blocking of release of beta-naphthylamine from Ala-Pro-Ala-betaNA substrate at 1 uM in presence of recombinant Plasmodium falciparum aminopeptidase P.
Assay [3] deals with Plasmodium falciparum. Briefly: Inhibition of aminopeptidase N in Plasmodium falciparum food vacuole extract.
Assay [4] deals with Plasmodium falciparum. Briefly: Antimalarial activity as inhibition of Plasmodium falciparum 3D7 replication in medium with all amino acids after 65 hrs. The class given is functional, organism-based. Conditions: 3D7, 65 h.
Assay [5] relates to Plasmodium falciparum. Briefly: Antimalarial activity as DNA content of ring stage Plasmodium falciparum 3D7 in medium + isoleucine by flow cytometry. The class given is functional, organism-based. (In general: Flow cytometry measures light scatter and fluorescence of single cells or particles in a stream.)
Assay [6] relates to Plasmodium falciparum. Briefly: Antimalarial activity as DNA content of ring stage Plasmodium falciparum 3D7 in medium with all amino acids by flow cytometry. The assay is classed as functional, organism-based.
Assay [7] has as its system Plasmodium falciparum. Briefly: Antimalarial activity as inhibition of Plasmodium falciparum 3D7 replication in medium + isoleucine after 65 hrs. The class given is functional, organism-based. Conditions: 3D7, 65 h.

Each structure is given as a SMILES string. Active and inactive are the calls of the source. The calls are words filed in the database; no cut-off is given here. Peptide text beside a SMILES is read from it. * marks the point of attachment. CH2F = FC*

In the case of `CC(C)CC(=O)N[C@H](C(=O)N[C@H](C(=O)N[C@@H](CC(C)C)[C@@H](O)CC(=O)N[C@@H](C)C(=O)N[C@@H](CC(C)C)[C@@H](O)CC(=O)O)C(C)C)C(C)C`, in assay [1], the outcome was inactive.
For the molecule `N=C(N)NCCC[C@H](NC(=O)[C@@H]1CCCN1)C(=O)CF` (H-Pro-Arg-CH2F), the result in assay [1] and in assay [2] was Active.
As for `CC(C)C[C@H](NC(=O)[C@@H](O)[C@H](N)Cc1ccccc1)C(=O)O` [UBENIMEX], the result in assay [1] and in assay [2] was inactive. Also, the outcome in the assay with Plasmodium falciparum [3], in the assay with Plasmodium falciparum [5] and with Plasmodium falciparum [6] was Active. Further, the EC50 in the assay on Plasmodium falciparum [4] came to 1800 nM; in the assay on Plasmodium falciparum [7] it was 900 nM.
For the molecule `CC(C)C[C@H](NC(=O)[C@H]1O[C@@H]1C(=O)O)C(=O)NCCCCN=C(N)N`, the outcome in assay [1] and in assay [2] was inactive.

The term EC50 denotes the concentration giving half of the maximal effect.
